Values after ≈ are worked out from the molar mass of the structure shown.
How the values were obtained:
[1] = system: polar flagellum / flagellin FlaA of V. cholerae strain C7258; assay: Flagellum assembly by transmission electron microscopy and FlaA western blot; format: cell-based, Vibrio cholerae
[2] = system: Vibrio cholerae strain C7258; assay: Growth with PMF blocked by CCCP (Na+ bioenergetics); format: cell-based; conditions: LB pH 8.6, 0.3 M NaCl, CCCP 5 μM, Q24DA 10 μg/mL
[3] = system: V. cholerae 0395, V. parahaemolyticus, V. vulnificus; assay: Swarm agar plates with different pathogenic Vibrios; format: cell-based, Vibrio; conditions: polar (SMF) vs lateral (PMF) flagellum
Excerpt: V. cholerae and V. vulnificus make a single polar flagellum (Fla) powered by sodium motive force (SMF). […] (A) V. cholerae 0395; (B) V. parahaemolyticus B22 (Fla^+ Laf^+); (C) V. parahaemolyticus LM5674 (Fla^+ Laf^+); (D) V. parahaemolyticus LM1017 (Fla^+ Laf^−); (E) V. parahaemolyticus LM5392 (Fla^− Laf^+); (F) V. parahaemolyticus 7890 (Fla^+ Laf^−); (G) V. vulnificus LAM624.

[4] = system: cholera toxin and toxin-co-regulated pilus production by strain C7258; format: cell-based, Vibrio cholerae
[5] = system: V. cholerae biofilm formation; format: cell-based, Vibrio cholerae
[6] = system: Vibrio cholerae strain C7258; assay: Growth of strain C7258 in broth containing test compound; format: cell-based; conditions: strain C7258, LB medium; Q24DA 10 μg/mL (FIG. 2)
[7] = system: Vibrio cholerae strain C7258; assay: Swarm agar plates stabbed with saturated cultures; format: cell-based; conditions: swarm agar stabbed with saturated culture of strain C7258
[8] = system: Vibrio cholerae strain C7258; assay: Bacterial viability/toxicity readout with alamarBlue in 384-well soft agar HTS assay; format: cell-based; conditions: for IC50: Vibrio cholerae, C7258, toxicity of compound to bacteria as measured by alamarBlue, read-out: Inhibition IC50
[9] = system: Vibrio cholerae strain C7258; assay: Bacterial motility in 384-well soft agar HTS assay, off-site OD615 reading; format: cell-based; conditions: for IC50: Vibrio cholerae, C7258, inhibition of bacterial motility, optical density read off-site from inoculation point, read-out: Motility OD IC50; for Control average OD615 in pilot screen: pilot screen control wells
[10] = assay validation, phenamil at 100 μM

SMILES | IC50 [8] [µg/mL] | IC50 [9] [µg/mL] | other results
Cc1ccc(C)c(Nc2nc(NCCO)c3ccccc3n2)c1 [AB00343282] | 25.7 (≈ 83.2 µM) | 8.76 (≈ 28.4 µM) | Level of expression of major flagellin protein FlaA ([1]; Western blot analysis): nor did it affect; Expression, secretion and assembly of wild type flagellum ([1]; transmission electron microscopy): does not inhibit; Effect on growth inhibition by blocking the PMF [2]: enhances the inhibitory effect of blocking the PMF; Flagellum specificity among pathogenic Vibrios [3]: specific for the polar flagellum powered by SMF; V. cholerae virulence gene expression [4]: inhibits V. cholerae virulence gene expression; Biofilm formation [5]: negative effect on biofilm formation; Effect on growth rate in broth [6]: no effect on growth rate; Motility in swarm agar (spread from inoculation site) ([7]; listed as Q24DA): motility inhibition; Motility in swarm agar (spread from inoculation site) ([7]; listed as quinazoline 2,4 diamine): completely abolished motility
COc1ccc(C)cc1Nc1nc(N)c2ccccc2n1 [compound 27284] | > 100 | 81.2 (≈ 290 µM) | 
Cc1ccc(Nc2nc(NCc3ccco3)c3ccccc3n2)cc1 [compound 27296] | 11.1 (≈ 33.5 µM) | 3.77 (≈ 11.4 µM) | 
Oc1ccccc1Nc1nc(NCc2ccco2)c2ccccc2n1 [compound 27297] | 81.9 (≈ 246 µM) | 37.8 (≈ 114 µM) | 
Fc1ccccc1Nc1nc(NCc2ccccc2)c2ccccc2n1 [compound 27299] | 100 (≈ 290 µM) | 6.37 (≈ 18.5 µM) | 
COc1ccc(Nc2nc(N3CCCC3)nc3ccccc23)c(OC)c1 [compound 27301] | 82 (≈ 234 µM) | 46.6 (≈ 133 µM) | 
c1ccc(CN2CCN(c3nc(NCc4ccco4)c4ccccc4n3)CC2)cc1 [compound 27307] | 37.9 (≈ 94.8 µM) | 34.9 (≈ 87.3 µM) | 
O=[N+]([O-])c1ccc(N2CCN(c3nc(N4CCN(CCO)CC4)nc4ccccc34)CC2)cc1 [compound 27310] | 55.4 (≈ 120 µM) | 77.2 (≈ 167 µM) | 
OCCNc1nc(NCc2ccco2)nc2ccccc12 [compound 27908] | > 100 | 45.6 (≈ 160 µM) | 
OCCNc1nc(Nc2cccc(O)c2)nc2ccccc12 [compound 27910] | 47 (≈ 159 µM) | 22.2 (≈ 74.8 µM) | 
OCCNc1nc(Nc2ccccc2O)nc2ccccc12 [compound 27911] | 34.2 (≈ 116 µM) | 29.5 (≈ 99.7 µM) | 
OCCNc1nc(Nc2ccccc2F)nc2ccccc12 [compound 27912] | 14.4 (≈ 48.4 µM) | 4.89 (≈ 16.4 µM) | 
Cc1cc(C)cc(Nc2nc(NCCO)c3ccccc3n2)c1 [compound 27914] | 10.1 (≈ 32.6 µM) | 6.96 (≈ 22.6 µM) | 
Cc1ccc(O)c(Nc2nc(NCCO)c3ccccc3n2)c1 [compound 27915] | 23 (≈ 74.2 µM) | 29.9 (≈ 96.2 µM) | 
COc1ccccc1Nc1nc(NCCO)c2ccccc2n1 [compound 27916] | 38.1 (≈ 123 µM) | 49.5 (≈ 159 µM) | 
OCCNc1nc(NCCc2cccs2)nc2ccccc12 [compound 27917] | 27 (≈ 85.9 µM) | 19.7 (≈ 62.7 µM) | 
Cc1ccc(Nc2nc(NCCO)c3ccccc3n2)c(C)c1 [compound 27918] | 15.6 (≈ 50.4 µM) | 6.1 (≈ 19.8 µM) | 
OCCNc1nc(Nc2ccc3c(c2)OCO3)nc2ccccc12 [compound 27919] | 29.8 (≈ 91.8 µM) | 10.8 (≈ 33.2 µM) | 
c1coc(CNc2nc(NCC3CCCO3)c3ccccc3n2)c1 (stereo not drawn) [compound 27926] | 35.6 (≈ 110 µM) | 24.7 (≈ 76.2 µM) | 
Oc1ccccc1Nc1nc(NCC2CCCO2)c2ccccc2n1 (stereo not drawn) [compound 27928] | 19.4 (≈ 57.6 µM) | 16.5 (≈ 49 µM) | 
Cc1cc(C)cc(Nc2nc(NCC3CCCO3)c3ccccc3n2)c1 (stereo not drawn) [compound 27929] | 6.11 (≈ 17.5 µM) | 6.89 (≈ 19.8 µM) | 
FC(F)(F)c1cccc(Nc2nc(NCC3CCCO3)c3ccccc3n2)c1 (stereo not drawn) [compound 27930] | 81.2 (≈ 209 µM) | 7.59 (≈ 19.5 µM) | 
NC(=Nc1ccccc1)NC(=O)c1nc(Cl)c(N)nc1N [phenamil, reference compound] |  |  | Effect on viability (alamarBlue reading) [8, 10]: little effect on viability; Effect on motility (OD615 reading) [9, 10]: inhibitory effect on motility; Control average OD615 in pilot screen [9]: Ave-0.10 OD615, CV-3.2
CN(C)[C@@H]1C(O)=C(C(N)=O)C(=O)[C@@]2(O)C(O)=C3C(=O)c4c(O)cccc4[C@@](C)(O)[C@H]3C[C@@H]12 [tetracycline, reference compound] |  |  | Control average OD615 in pilot screen [9]: Ave-0.10 OD615, CV-3.6

Source: US8940740B2, “Small molecule inhibitors of bacterial motility and a high throughput screening assay for their identification” (priority 2010, dated 2015)
